Tests used:
Type in all cases: in vivo
[1] = system: larvae of the banded cucumber beetle (Diabrotica balteata); assay: Diabrotica balteata spray test; details: 168 h, 100 g/ha (=32 μg/well), wheat seeds, after 7 days, read-out: efficacy (seedling growth)
Protocol: Diabrotica Balteata—Spray Test
• Solvent: 78.0 parts by weight of acetone • 1.5 parts by weight of dimethylformamide • Emulsifier: alkylarylpolyglycol ether
Further test concentrations are prepared by dilution with emulsifier containing water.
Soaked wheat seeds (Triticum aestivum) are placed in a multiple well plate filled with agar and some water and are incubated for 1 day to germinate (5 seeds per well). The germinated wheat seeds are sprayed with a test solution containing the desired concentration of the active ingredient. Afterwards each unit is infected with 10-20 larvae of the banded cucumber beetle (Diabrotica balteata).
After 7 days efficacy in % is determined.

[2] = system: fall armyworm larvae (Spodoptera frugiperda); assay: Spodoptera frugiperda spray test (maize leaf sections); details: 168 h
Protocol: Spodoptera frugiperda—Spray Test • Solvent: 78.0 parts by weight acetone • 1.5 parts by weight dimethylformamide • Emulsifier: alkylarylpolyglycol ether
(§1) To produce a suitable preparation of active compound, 1 part by weight of active compound is mixed with the stated amount of solvents and is diluted with water, containing an emulsifier concentration of 1000 ppm, to the desired concentration. Further test concentrations are prepared by dilution with emulsifier containing water.
Maize (Zea mays) leaf sections are sprayed with a preparation of the active ingredient of the desired concentration. Once dry, the leaf sections are infested with fall armyworm larvae (Spodoptera frugiperda).
After 7 days mortality in % is determined. 100% means all caterpillars have been killed and 0% means none of the caterpillars have been killed.

[3] = system: larvae of the southern green stink bug (Nezara viridula); assay: Nezara viridula spray test; details: in Hordeum vulgare, 96 h
Protocol: Nezara viridula—Spray Test • Solvent: 78.0 parts by weight of acetone • 1.5 parts by weight of dimethylformamide • Emulsifier: alkylarylpolyglycol ether
as §1, with “solvent,” for “solvents”, “and the concentrate” for “and”
Barley plants (Hordeum vulgare) are sprayed with a test solution containing the desired concentration of the active ingredient and are infested with larvae of the southern green stink bug (Nezara viridula).
After 4 days mortality in % is determined. 100% means all the stink bugs have been killed; 0% means none of the stink bugs have been killed.

| SMILES | pest or weed control at 32 µg/disc, 100 g/ha [1] | mortality at 100 g/ha [2] | mortality at 100 g/ha [3] | mortality at 500 g/ha [3] |
| --- | --- | --- | --- | --- |
| Cc1nc([C@H](C)NC(=O)c2cc(Cl)cc(C(F)(F)F)c2)n(-c2ncc(C(=O)N(C)C)s2)n1 [I-22] | 100% | 100% |  |  |
| C[C@H](NC(=O)c1cc(F)cc(C#N)c1)c1ncnn1-c1ncc(C#N)s1 [I-41] | 100% | 100% |  |  |
| C[C@H](NC(=O)c1cc(Br)cc(C2(F)CC2)c1)c1ncnn1-c1ncc(C#N)s1 [I-43] | 100% | 100% |  |  |
| C[C@H](NC(=O)c1cc(C(F)F)cc(C2CC2)c1)c1ncnn1-c1ncc(C#N)s1 [I-44] | 100% | 100% |  |  |
| C[C@H](NC(=O)c1cc(Br)cc(C2CC2(F)F)c1)c1ncnn1-c1ncc(C#N)s1 (stereo partly drawn) [I-45] | 100% | 100% |  |  |
| C[C@H](NC(=O)c1cc(OC(F)(F)F)cc(S(C)(=O)=O)c1)c1nc(C2CC2)nn1-c1ncc(C#N)s1 [I-48] | 100% | 100% |  |  |
| C[C@H](NC(=O)c1cc(F)cc(C(F)F)c1)c1ncnn1-c1ncc(C#N)s1 [I-49] | 100% | 100% |  |  |
| C[C@H](NC(=O)c1cc(F)cc(OC(F)F)c1)c1ncnn1-c1ncc(C#N)s1 [I-53] | 100% | 100% |  |  |
| C[C@H](NC(=O)c1cc(Br)cc(S(=O)(=O)C(F)(F)F)c1)c1ncnn1-c1ncc(C#N)s1 [I-55] | 100% | 100% |  |  |
| C[C@H](NC(=O)c1cc(C2CC2)cc(S(=O)(=O)C(F)(F)F)c1)c1ncnn1-c1ncc(C#N)s1 [I-56] | 100% | 100% |  |  |
| C[C@H](NC(=O)c1cc(Br)cc(OC(F)(F)F)c1)c1ncnn1-c1ncc(C#N)s1 [I-57] | 80% | 100% |  |  |
| C[C@H](NC(=O)c1cc(Br)cc(C#N)c1)c1ncnn1-c1ncc(C#N)s1 [I-58] | 100% |  |  |  |
| C[C@H](NC(=O)c1cc(OC(F)(F)F)cc(S(=O)(=O)C2CC2)c1)c1ncnn1-c1ncc(C#N)s1 [I-61] | 100% | 100% |  |  |
| CCS(=O)(=O)c1cc(OC(F)(F)F)cc(C(=O)N[C@@H](C)c2ncnn2-c2ncc(C#N)s2)c1 [I-62] | 100% | 100% |  |  |
| CC(C)S(=O)(=O)c1cc(OC(F)(F)F)cc(C(=O)N[C@@H](C)c2ncnn2-c2ncc(C#N)s2)c1 [I-63] | 100% |  |  |  |
| Cc1nc([C@H](C)NC(=O)c2cc(Cl)cc(C(F)(F)F)c2)n(-c2ncc(C(=O)NC(C)C)s2)n1 [I-68] | 100% | 100% |  |  |
| CC(NC(=O)c1cc(Br)cc(OCC(F)(F)F)c1)c1ncnn1-c1ncc(C#N)s1 (stereo not drawn) [I-88] | 100% | 100% |  |  |
| Cc1nc([C@H](C)NC(=O)c2cc(Br)cc(OCC(F)(F)F)c2)n(-c2ncc(C#N)s2)n1 [I-92] | 100% | 100% |  |  |
| C[C@H](NC(=O)c1cc(Cl)cc(C#N)c1)c1ncnn1-c1ncc(C#N)s1 [I-101] | 100% | 100% |  |  |
| C[C@H](NC(=O)c1cc(Cl)cc(S(=O)(=O)C(F)(F)F)c1)c1ncnn1-c1ncc(C(=O)N(C)C)s1 [I-116] | 100% | 100% |  |  |
| C[C@H](NC(=O)c1cc(C(F)F)cc(C(F)F)c1)c1ncnn1-c1ncc(C(=O)N(C)C)s1 [I-117] |  |  | 100% | 100% |
| CNC(=O)c1cnc(-n2ncnc2[C@H](C)NC(=O)c2cc(Cl)cc(C3CC3)c2)s1 [I-122] | 100% | 100% |  |  |
| C[C@H](NC(=O)c1cc(OC(F)F)cc(S(C)(=O)=O)c1)c1nc(C2CC2)nn1-c1ncc(C#N)s1 [I-132] | 100% | 100% |  |  |

| SMILES | pest or weed control at 32 µg/disc, 100 g/ha [1] | mortality at 100 g/ha [2] | mortality at 100 g/ha [3] | mortality at 500 g/ha [3] |
| --- | --- | --- | --- | --- |
| C[C@H](NC(=O)c1cc(OC(F)F)cc(S(=O)(=O)C2CC2)c1)c1nc(C2CC2)nn1-c1ncc(C#N)s1 [I-133] | 100% | 100% |  |  |
| C[C@H](NC(=O)c1cc(C#N)cc(OC(F)(F)F)c1)c1ncnn1-c1ncc(C#N)s1 [I-135] | 100% | 100% |  |  |
| C[C@H](NC(=O)c1cc(Cl)nc(OC(F)(F)F)c1)c1ncnn1-c1ncc(C#N)s1 [I-139] | 100% | 100% |  |  |
| CNC(=O)c1cnc(-n2ncnc2[C@H](C)NC(=O)c2cc(Cl)cc(S(=O)(=O)c3ccc(Cl)cc3)c2)s1 [I-140] | 100% | 100% |  |  |
| C[C@H](NC(=O)c1cc(Cl)cc(S(=O)(=O)c2ccc(Cl)cc2)c1)c1ncnn1-c1ncc(C(=O)N(C)C)s1 [I-141] |  | 100% |  |  |
| C[C@H](NC(=O)c1cc(Cl)cc(S(=O)(=O)c2ccc(Cl)cc2)c1)c1ncnn1-c1ncc(C#N)s1 [I-143] | 80% | 100% |  |  |
| C[C@H](NC(=O)c1cc(OC(F)(F)F)cc(OC(F)(F)F)c1)c1ncnn1-c1ncc(C#N)s1 [I-144] | 100% | 100% |  |  |
| C[C@H](NC(=O)c1cc(Br)cc(OC(F)(F)F)c1)c1ncnn1-c1ncc(C(=O)N(C)C2CC2)s1 [I-145] | 100% | 100% |  |  |
| C[C@H](NC(=O)c1cc(Cl)cc(S(=O)(=O)C(F)F)c1)c1ncnn1-c1ncc(C(=O)N(C)C2CC2)s1 [I-146] | 100% | 100% |  |  |
| C[C@H](NC(=O)c1cc(OC(F)(F)F)cc(S(C)(=O)=O)c1)c1ncnn1-c1ncc(C(=O)N(C)C2CC2)s1 [I-147] | 100% | 100% |  |  |
| C[C@H](NC(=O)c1cc(Cl)cc(S(=O)(=O)c2ccc(Cl)cc2)c1)c1ncnn1-c1ncc(C(=O)N(C)C2CC2)s1 [I-149] | 100% | 100% |  |  |
| C[C@H](NC(=O)c1cc(C(F)F)cc(C(F)F)c1)c1ncnn1-c1ncc(C(=O)N(C)C2CC2)s1 [I-150] | 100% | 100% |  |  |
| C[C@H](NC(=O)c1cc(C(F)(F)F)cc(C(F)(F)F)c1)c1ncnn1-c1ncc(C(=O)N(C)C2CC2)s1 [I-151] | 100% | 100% |  |  |
| C[C@H](NC(=O)c1cc(Cl)cc(S(=O)(=O)C(F)(F)F)c1)c1ncnn1-c1ncc(C(=O)N(C)C2CC2)s1 [I-153] | 100% | 100% |  |  |
| C[C@H](NC(=O)c1cc(C(F)(F)F)cc(C(F)(F)F)c1)c1nc(C2CC2)nn1-c1ncc(C(=O)N(C)C)s1 [I-156] | 100% | 100% |  |  |
| C[C@H](NC(=O)c1cc(OC(F)(F)F)cc(C2CC2)c1)c1nc(C2CC2)nn1-c1ncc(C(=O)N(C)C)s1 [I-157, 2-(3-cyclopropyl-5-{(1S)-1-[3-cyclopropyl-5-(trifluoromethoxy)benzamido]ethyl}-1H-1,2,4-triazol-1-yl)-N,N-dimethyl-1,3-thiazole-5-carboxamide] | 100% | 100% |  |  |
| Cc1nc([C@H](C)NC(=O)c2cc(OC(F)(F)F)cc(S(C)(=O)=O)c2)n(-c2ncc(C#N)s2)n1 [I-159] | 100% | 100% |  |  |
| Cc1nc([C@H](C)NC(=O)c2cc(Cl)cc(S(=O)(=O)C(F)(F)F)c2)n(-c2ncc(C#N)s2)n1 [I-160] | 100% | 100% |  |  |
| Cc1nc([C@H](C)NC(=O)c2cc(S(=O)(=O)C(F)(F)F)cc(S(=O)(=O)C(F)(F)F)c2)n(-c2ncc(C#N)s2)n1 [I-162] | 100% | 100% |  |  |
| Cc1nc([C@H](C)NC(=O)c2cc(Cl)cc(S(=O)(=O)C3CC3)c2)n(-c2ncc(C#N)s2)n1 [I-163] | 100% | 100% |  |  |
| Cc1nc([C@H](C)NC(=O)c2cc(OC(F)(F)F)cc(S(=O)(=O)C3CC3)c2)n(-c2ncc(C#N)s2)n1 [I-164] | 100% | 100% |  |  |
| C[C@H](NC(=O)c1cncc(OC(F)(F)F)c1)c1ncnn1-c1ncc(C#N)s1 [I-174] |  |  |  | 100% |
| COc1nc(C(C)NC(=O)c2cc(OC(F)(F)F)cc(S(=O)(=O)C3CC3)c2)n(-c2ncc(C#N)s2)n1 (stereo not drawn) [I-200, N-{1-[1-(5-cyano-1,3-thiazol-2-yl)-3-methoxy-1H-1,2,4-triazol-5-yl]ethyl}-3-(cyclopropylsulfonyl)-5-(trifluoromethoxy)benzamide] | 100% |  |  |  |
